Experimental findings from patent US9360486B2, “Allergen fragments” (Biomay AG, priority 2007, dated 2016) are described below.

The test system of the assay is Amb a 1-specific T cell lines (TCL). Nature of the assay: T cell epitope mapping of Amb a 1.3: proliferation (3H-thymidine uptake) of TCL stimulated with synthetic peptides. The note with it: for No. positive patients SI > 3 / No. positive patients SI > 5 / % (positive patients SI > 3) / % (positive patients SI > 5): TCL from 48 ragweed pollen-allergic patients, peptide 5 μg/ml; for No. positive patients SI > 3 / No. positive patients SI > 5: 3H-thymidine uptake after 48 hrs; for No. positive patients SI > 3 / % (positive patients SI > 3): stimulation index > 3; for No. positive patients SI > 5 / % (positive patients SI > 5): stimulation index > 5; for T cell activating region recognized by % of patients: classes of prevalence referring to SI>5, 48 TCL. It counts as cell-based, human. The text has this: The T cell response to Amb a 1 was characterized in detail using the established in vitro culture system (Jahn-Schmid et al., J. Immunol. 169: 6005-11, 2002; Jahn-Schmid et al., J. Allergy Clin. Immunol., 115: 399-404, 2005). In total, 85 clinically well-defined patients (75 from Vienna/10 from Milano) with typical case history, positive skin prick test and CAP/RAST tests for ragweed extract were included.
Peripheral blood mononuclear cells (PBMC) were isolated from heparinized blood of allergic patients by Ficoll density gradient centrifugation. To generate allergen-specific T cell lines (TCL) and T cell clones (TCC), 1.5×10^6 PBMC were stimulated with optimal doses of ragweed or mugwort extract (4 μg/ml) or rAmb a 1.3 (10 μg/ml) in 24-well flat-bottomed culture plates (Costar, USA). After 5 days human rIL-2 (10 U/ml, Boehringer, Mannheim, Germany) were added and cultures were continued for additional 7 days. Then, T cell blasts were isolated by density centrifugation. The majority of T cell blasts was further expanded with IL-2 and irradiated PBMC. A small number of T cell blasts were used to establish monoclonal T cell cultures by limiting dilution: 0.3 T cells/well were seeded into 96 well round bottom plates (Nunclone) in the presence of 2×10^5 irradiated (60 Gy) PBMC, 0.25% v/v PHA (Gibco, USA) and rIL-2 (4 U/well) in the medium mentioned above. After 14-21 days, growing microcultures were expanded at weekly intervals with irradiated PBMC and rIL-2. The specificity of TCC was assessed in proliferation assays using irradiated allogeneic or HLA-matched PBMC or irradiated EBV-transformed allogeneic B-cells and 5 μg/ml Amb a 1.3. After 48 hours, cellular uptake of tritiated (^3H)-thymidine was performed to measure proliferation in counts per minute (cpm). When the stimulation index (SI; ratio between cpm obtained in cultures containing TCC plus autologous APC plus antigen, and cpm obtained in cultures containing TCC and APC alone) was >10, responses were considered as positive. Allergen-specific TCC were expanded by alternating turns of stimulation with autologous irradiated APC and allergen or with allogeneic feeder cells and rIL-2.
Amb a 1-specific TCL and TCC were used to identify T cell epitopes of Amb a 1.3. T cell cultures were stimulated with a panel of 121 synthetic 12-mer peptides and one 13-mer representing the C-terminal peptide of Amb a 1.3 (Pepset, Biotrend, Germany). Peptides had been synthesized according to the Amb a 1.3 amino acid sequence and overlapped for 9 amino acid residues with the neighbouring peptides (Table 1). Peptides were used at a concentration of 5 μg/ml for stimulation and proliferation of T cell cultures was determined after 48 hrs by ^3H-thymidine-uptake. Because of the frequently observed high background caused by auto-reactivity in TCL, the mean of the cpm observed with the ten least stimulating peptides (none of the peptides was toxic) was used as negative control in calculations of SI. Throughout this manuscript, a peptide comprised one T cell epitope when the stimulation index was at least 3.0.
T cell epitope mapping of Amb a 1.3 was performed evaluating 48 TCL from different patients ([…]), which had been initiated with ragweed extract (containing the natural allergen) or rAmb a 1.3 (Table 2). TCL induced with either ragweed extract or rAmb a 1.3 from the same individual recognized similar T cell epitopes (Table 2; FIG. 7). […] Therefore, their data were combined for further analysis (Table 3). Typical for many inhalant allergens, multiple T cell activating regions were detected in Amb a 1.3. The number of peptides recognized by T cells from a single individual ranged from 2 to maximum 60 peptides with a mean of 17.8 peptides (median=16/for SI>3; resp. 0-36/11.9/12 for SI>5) (see Table 3). In total, 26 relevant (i.e. recognized by ≧10% of patients studied) T cell activating regions comprising 12-18 aa were identified. […]

As for “AAAQNRPLWIIF (Amb a 1 fragment) [Peptide 29]”, the “No. positive patients SI > 3” value was 4, the “No. positive patients SI > 5” value worked out at 3, the “% (positive patients SI > 3)” value worked out at 8.3% and the “% (positive patients SI > 5)” value is 6.3%.
As to “AEPGEAAIKLTS (Amb a 1 fragment) [Peptide 117]”, the “No. positive patients SI > 3” value was 4, the “No. positive patients SI > 5” value is on record as 3, the “% (positive patients SI > 3)” value is reported as 8.3% and the “% (positive patients SI > 5)” value turned out to be 6.3%.
Take “AIKLTSSAGVLS (Amb a 1 fragment) [Peptide 119]”: the “reactivity with T cells isolated from allergic individuals” value (“reactivity with T cells isolated” for short) is “reactivity with T cells”, the “No. positive patients SI > 3” value was determined as 16, the “No. positive patients SI > 5” value amounted to 10 and the “% (positive patients SI > 3)” value came out at 33.3%. In addition, the “% (positive patients SI > 5)” value came out at 20.8%.
As to “AIKLTSSAGVLSCRP (Amb a 1 fragment) [Peptide 119-120]”, the “reactivity with T cells isolated” value was “reactivity with T cells”.
With “AKGTYGGKWGDV (Amb a 1 fragment) [Peptide 18]”, the “No. positive patients SI > 3” value is reported as 1, the “No. positive patients SI > 5” value stood at 0, the “% (positive patients SI > 3)” value came out at 2.1% and the “% (positive patients SI > 5)” value was found to be 0.0%.
The like results for “ALADCAQGFAKG (Amb a 1 fragment) [Peptide 15]” were, in that order, 4, 2, 8.3% and 4.2%.
As for “AWNWRSDKDLLE (Amb a 1 fragment) [Peptide 105]”, the “No. positive patients SI > 3” value is reported as 4, the “No. positive patients SI > 5” value is listed as 3, the “% (positive patients SI > 3)” value was 8.3% and the “% (positive patients SI > 5)” value turned out to be 6.3%.
The corresponding values for “CKFTQQSKAILL (Amb a 1 fragment) [Peptide 71]” are 4, 2, 8.3% and 4.2%.
Take “CSLSKSFDGLVD (Amb a 1 fragment) [Peptide 63]”: the “No. positive patients SI > 3” value was 2, the “No. positive patients SI > 5” value is 2, the “% (positive patients SI > 3)” value worked out at 4.2% and the “% (positive patients SI > 5)” value is listed as 4.2%.
For “DCAQGFAKGTYG (Amb a 1 fragment) [Peptide 16]”, the “No. positive patients SI > 3” value worked out at 2, the “No. positive patients SI > 5” value amounted to 0, the “% (positive patients SI > 3)” value stood at 4.2% and the “% (positive patients SI > 5)” value turned out to be 0.0%.
The like results for “DGPPILRQASDG (Amb a 1 fragment) [Peptide 54]” were, in that order, 4, 2, 8.3% and 4.2%.
As to “DKCWRGKADWEN (Amb a 1 fragment) [Peptide 10]”, the “No. positive patients SI > 3” value stood at 2, the “No. positive patients SI > 5” value is reported as 2, the “% (positive patients SI > 3)” value is on record as 4.2% and the “% (positive patients SI > 5)” value stood at 4.2%.
“DKDLLENGAIFV (Amb a 1 fragment) [Peptide 107]”: the “reactivity with T cells isolated” value was “reactivity with T cells”, the “No. positive patients SI > 3” value came out at 30, the “No. positive patients SI > 5” value is 27 and the “% (positive patients SI > 3)” value worked out at 62.5%. Moreover, the “% (positive patients SI > 5)” value was determined as 56.3%.
As to “DKDLLENGAIFVTSG (Amb a 1 fragment) [Peptide 107-108]”, the “reactivity with T cells isolated” value is on record as “reactivity with T cells” and the “T cell activating region recognized by % of patients” value is given as “recognized by 56.3%”.
Turning to “DKDLLENGAIFVTSGSDPVLTPVQ (Amb a 1 fragment) [Peptide 107-111]”, the “reactivity with T cells isolated” value is on record as “reactivity with T cells”.
On to “DTHVQDKGMLAT (Amb a 1 fragment) [Peptide 76]”, for which the “No. positive patients SI > 3” value turned out to be 4, the “No. positive patients SI > 5” value worked out at 1, the “% (positive patients SI > 3)” value came to 8.3% and the “% (positive patients SI > 5)” value is recorded as 2.1%.
In the case of “DTINVAGSSQIW (Amb a 1 fragment) [Peptide 58]”, the “No. positive patients SI > 3” value is reported as 3, the “No. positive patients SI > 5” value is 1, the “% (positive patients SI > 3)” value is reported as 6.3% and the “% (positive patients SI > 5)” value turned out to be 2.1%.
The corresponding values for “DVANPKEGTLRF (Amb a 1 fragment) [Peptide 25]” are 2, 0, 4.2% and 0.0%.
The corresponding values for “EAYNIIDKCWRG (Amb a 1 fragment) [Peptide 8]” are 3, 1, 6.3% and 2.1%.
Regarding “EGTLRFAAAQNR (Amb a 1 fragment) [Peptide 27]”, the “reactivity with T cells isolated” value is “reactivity with T cells”, the “No. positive patients SI > 3” value amounted to 5, the “No. positive patients SI > 5” value came out at 5 and the “% (positive patients SI > 3)” value is on record as 10.4%. Also, the “% (positive patients SI > 5)” value stood at 10.4%.
Consider “EGTLRFAAAQNRPLW (Amb a 1 fragment) [Peptide 27-28]”, for which the “reactivity with T cells isolated” value is “reactivity with T cells” and the “T cell activating region recognized by % of patients” value is recorded as “recognized by 22.9%”.
As to “EIINGGLTLMNV (Amb a 1 fragment) [Peptide 42]”, the “reactivity with T cells isolated” value is recorded as “reactivity with T cells”, the “No. positive patients SI > 3” value stood at 11, the “No. positive patients SI > 5” value stood at 5 and the “% (positive patients SI > 3)” value was 22.9%. In addition, the “% (positive patients SI > 5)” value was found to be 10.4% and the “T cell activating region recognized by % of patients” value is given as “recognized by 10.4%”.
Consider “EILPSVNETRSL (Amb a 1 fragment) [Peptide 3]”, for which the “No. positive patients SI > 3” value turned out to be 1, the “No. positive patients SI > 5” value is given as 0, the “% (positive patients SI > 3)” value is reported as 2.1% and the “% (positive patients SI > 5)” value is 0.0%.
The corresponding values for “ESMAWNWRSDKD (Amb a 1 fragment) [Peptide 104]” are 2, 1, 4.2% and 2.1%.
Take “FDGLVDVTLGST (Amb a 1 fragment) [Peptide 65]”: the “No. positive patients SI > 3” value was found to be 2, the “No. positive patients SI > 5” value worked out at 1, the “% (positive patients SI > 3)” value is recorded as 4.2% and the “% (positive patients SI > 5)” value is reported as 2.1%.
As for “FGFFQVVNNNYD (Amb a 1 fragment) [Peptide 86]”, the “T cell reactivity with samples from individuals suffering from ragweed pollen allergy” value is reported as “high T cell reactivity”, the “reactivity with T cells isolated” value is “reactivity with T cells”, the “No. positive patients SI > 3” value came out at 12 and the “No. positive patients SI > 5” value is recorded as 10. The “% (positive patients SI > 3)” value was 25.0%, the “% (positive patients SI > 5)” value is 20.8% and the “T cell activating region recognized by % of patients” value was “recognized by 20.6%”.
